Here are results for 30 compounds from patent US20220380314A1, “SUBSTITUTED, SATURATED AND UNSATURATED N-HETEROCYCLIC CARBOXAMIDES AND RELATED COMPOUNDS FOR THEIR USE IN THE TREATMENT OF MEDICAL DISORDERS” (Bial - R&D Investments, S.A., priority 2019, published 2022).

Values after ≈ are worked out from the molar mass of the structure shown. Where two headings read alike, the source gives them in different places.

Data set [1] in a line: Compound solubility in water. Type of data set: physicochemical.
The next data set addresses T1, acid ceramidase (hACR) (Homo sapiens, UniProt Q13510).
T1 construct: expressed in transfected cells; cell lysate used
T1 sequence (Q13510 143-395 limits assumed): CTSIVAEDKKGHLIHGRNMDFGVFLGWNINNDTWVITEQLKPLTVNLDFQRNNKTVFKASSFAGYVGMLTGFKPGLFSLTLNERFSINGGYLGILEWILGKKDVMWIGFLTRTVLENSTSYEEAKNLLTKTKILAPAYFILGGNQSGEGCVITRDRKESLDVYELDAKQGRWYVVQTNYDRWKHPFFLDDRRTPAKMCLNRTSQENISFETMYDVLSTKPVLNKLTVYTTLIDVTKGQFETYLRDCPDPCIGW
T1 sequence (Q13510 22-142 limits assumed): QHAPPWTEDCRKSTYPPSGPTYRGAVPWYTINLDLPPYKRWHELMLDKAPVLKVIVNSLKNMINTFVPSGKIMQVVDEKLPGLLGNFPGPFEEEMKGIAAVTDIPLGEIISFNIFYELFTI
The data set can be described thus: Acid ceramidase inhibition, biochemical fluorescent assay with cell lysates overexpressing acid ceramidase, substrate Rbm14-12. In short, it runs like this:
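Enzyme source was lysate (10 µg protein) from cells overexpressing acid ceramidase, preincubated 1 hr at RT with compound dose series in 25 mM NaAc, 100 mM NaCl, pH 4.5. Rbm14-12 (6.3 μM final) reacted 1 hr at RT; stop buffer (methanol, NaIO4, glycine, pH 10.6) 1 hr, fluorescence ex360/em446; IC50 from four-parameter fit.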

[2] abbreviates: cell lysates overexpressing acid ceramidase, 1 hr preincubation at RT, pH 4.5, substrate Rbm14-12 6.3 μM, read-out: hACR IC50.

Compound `CC1(C)CC(F)=CCN1C(=O)NCCCc1ccccc1` [Example 62, 4-fluoro-2,2-dimethyl-N-(3-phenylpropyl)-3,6-dihydropyridine-1(2H)-carboxamide] displayed a solubility in data set [1] of 15 µM (≈ 4.36 µg/mL). In addition, at acid ceramidase (hACR) (setting [2]), the IC50 was greater than 1000 nM.

Turning to `CN(C(=O)NCCCc1ccccc1)C12CCC(CC1)CC2` [Example 63, 1-(Bicyclo[2.2.2]octan-1-yl)-1-methyl-3-(3-phenylpropyl)urea], the concentration in solution in data set [1] (solubility) came to 3.1 µM (≈ 0.931 µg/mL). Further, the concentration for half-maximal inhibition (IC50) on acid ceramidase (hACR) (setting [2]) was less than 200 nM.

Consider `CN(C(=O)NCCCc1ccccc1)C1CN2CCC1CC2` (stereo not drawn) [Example 64, 1-Methyl-3-(3-phenylpropyl)-1-(quinuclidin-3-yl)urea], for which, in data set [1], the solubility worked out at 35.4 µM (≈ 10.7 µg/mL). Besides, the IC50 on acid ceramidase (hACR) (setting [2]) was greater than 1000 nM.

`CN1CC(c2ccc3c(c2)N(C(=O)NCc2ccccc2)C(C)(C)CC3)C1` [Example 65, N-benzyl-2,2-dimethyl-7-(1-methylazetidin-3-yl)-3,4-dihydroquinoline-1(2H)-carboxamide] gave a solubility in data set [1] of 40.2 µM (≈ 14.6 µg/mL). Moreover, on acid ceramidase (hACR) (setting [2]), the IC50 lay within 200 to 1000 nM.

`CN1CC(c2cccc3c2CCC(C)(C)N3C(=O)NCc2ccccc2)C1` [Example 66, N-Benzyl-2,2-dimethyl-5-(1-methylazetidin-3-yl)-3,4-dihydroquinoline-1(2H)-carboxamide] yielded a solubility in data set [1] of 38.5 µM (≈ 14 µg/mL). For the same compound, the IC50 on acid ceramidase (hACR) (setting [2]) was in the range of 200 to 1000 nM.

In data set [1], `CC1(C)Cc2ccccc2N1C(=O)NCCc1ccccc1` [Example 67, 2,2-Dimethyl-N-phenethylindoline-1-carboxamide] returned a solubility of 8.3 µM (≈ 2.44 µg/mL). Moreover, the IC50 at acid ceramidase (hACR) (setting [2]) is greater than 1000 nM.

Consider `COc1cccc2c1N(C(=O)NCCc1ccccc1)C(C)(C)CC2` [Example 68, 8-Methoxy-2,2-dimethyl-N-phenethyl-3,4-dihydroquinoline-1(2H)-carboxamide], for which the solubility in data set [1] was 8.2 µM (≈ 2.78 µg/mL). For the same compound, the IC50 on acid ceramidase (hACR) (setting [2]) is less than 200 nM.

Compound `CN1CC(N2CC(c3ccc4c(c3)N(C(=O)NCCc3ccccc3)C(C)(C)CC4)C2)C1` [Example 69, 2,2-Dimethyl-7-(1′-methyl-[1,3′-biazetidin]-3-yl)-N-phenethyl-3,4-dihydroquinoline-1(2H)-carboxamide] displayed a solubility in data set [1] of 35.5 µM (≈ 15.4 µg/mL). The IC50 at acid ceramidase (hACR) (setting [2]) was greater than 1000 nM.

For the compound `CC(=O)N1CC(c2ccc3c(c2)N(C(=O)NCCc2ccccc2)C(C)(C)CC3)C1` [Example 70, 7-(1-Acetylazetidin-3-yl)-2,2-dimethyl-N-phenethyl-3,4-dihydroquinoline-1(2H)-carboxamide], in data set [1], the solubility came out at 15.6 µM (≈ 6.33 µg/mL). Moreover, the half-maximal inhibitory concentration (IC50) at acid ceramidase (hACR) (setting [2]) lay in the range of 200 to 1000 nM.

For `CN(C(=O)NCCCC1(C(F)(F)F)CC1)C12CCC(CC1)CC2` [Example 71, 1-(Bicyclo[2.2.2]octan-1-yl)-1-methyl-3-(3-(1-(trifluoromethyl)cyclopropyl)propyl)urea], the concentration in solution in data set [1] (solubility) was 5.9 µM (≈ 1.96 µg/mL). The IC50 on acid ceramidase (hACR) (setting [2]) is 200 to 1000 nM.

In turn, `CC1(C)CC(F)(F)CCN1C(=O)NCCCC1(C(F)(F)F)CC1` [Example 72, 4,4-Difluoro-2,2-dimethyl-N-(3-(1-(trifluoromethyl)cyclopropyl)propyl)piperidine-1-carboxamide] came in with a solubility in data set [1] of 21.4 µM (≈ 7.33 µg/mL). Also, the IC50 on acid ceramidase (hACR) (setting [2]) was 200 to 1000 nM.

Regarding `CC1(C)CC(F)=CCN1C(=O)NCCCC1(C(F)(F)F)CC1` [Example 73, 4-fluoro-2,2-Dimethyl-N-(3-(1-(trifluoromethyl)cyclopropyl)propyl)-3,6-dihydropyridine-1(2H)-carboxamide], the solubility in data set [1] came to 4.3 µM (≈ 1.39 µg/mL). Further, on acid ceramidase (hACR) (setting [2]), the half-inhibitory concentration (IC50) was greater than 1000 nM.

For the compound `CC1(C)CC(c2ccccc2)CCN1C(=O)NCCCCc1ccccc1` (stereo not drawn) [Example 74, 2,2-Dimethyl-4-phenyl-N-(4-phenylbutyl)piperidine-1-carboxamide], the solubility in data set [1] was 0.2 µM (≈ 0.0729 µg/mL). In addition, on acid ceramidase (hACR) (setting [2]), the IC50 is less than 200 nM.

In data set [1], `CC1(C)CC(c2ccccc2)CCN1C(=O)NCCOCc1ccccc1` (stereo not drawn) [Example 75, N-(2-Benzyloxyethyl)-2,2-dimethyl-4-phenylpiperidine-1-carboxamide] registered a solubility of 7.1 µM (≈ 2.6 µg/mL). On acid ceramidase (hACR) (setting [2]), the IC50 is greater than 1000 nM.

Consider `CCOCCNC(=O)N1CCC(c2ccccc2)CC1(C)C` (stereo not drawn) [Example 77, N-(2-Ethoxyethyl)-2,2-dimethyl-4-phenylpiperidine-1-carboxamide], for which the concentration in solution in data set [1] (solubility) came to 64.3 µM (≈ 19.6 µg/mL). The half-maximal inhibitory concentration (IC50) on acid ceramidase (hACR) (setting [2]) was greater than 1000 nM.

Consider `CC1(C)CC(c2ccccn2)CCN1C(=O)NCCCCc1ccccc1` (stereo not drawn) [Example 79, 2,2-Dimethyl-N-(4-phenylbutyl)-4-(2-pyridyl)piperidine-1-carboxamide], for which the solubility in data set [1] came to 6.4 µM (≈ 2.34 µg/mL). Also, the 50% inhibitory concentration (IC50) at acid ceramidase (hACR) (setting [2]) is greater than 1000 nM.

On to `CC1(C)CC(N2CCCCC2)CCN1C(=O)NCCCCc1ccccc1` (stereo not drawn) [Example 83, 2,2-Dimethyl-N-(4-phenylbutyl)-4-(1-piperidyl)piperidine-1-carboxamide], for which the solubility in data set [1] is greater than 100 µM. The IC50 at acid ceramidase (hACR) (setting [2]) was less than 200 nM.

`CC1(C)CC(N2CCC(F)(F)CC2)CCN1C(=O)NCCCCc1ccccc1` (stereo not drawn) [Example 86, 4-(4,4-Difluoro-1-piperidyl)-2,2-dimethyl-N-(4-phenylbutyl)piperidine-1-carboxamide] returned a solubility in data set [1] of 31 µM (≈ 12.6 µg/mL). The IC50 on acid ceramidase (hACR) (setting [2]) was less than 200 nM.

For the compound `CN(c1ccccc1)C1CCN(C(=O)NCCCCc2ccccc2)C(C)(C)C1.Cl` (stereo not drawn) [Example 88, 2,2-Dimethyl-4-(N-methylanilino)-N-(4-phenylbutyl)piperidine-1-carboxamide hydrochloride], the solubility in data set [1] was determined as 0.01 µM. Also, the IC50 at acid ceramidase (hACR) (setting [2]) was greater than 1000 nM.

Take `CC1(C)CC(Oc2ccccc2)CCN1C(=O)NCCCCc1ccccc1` (stereo not drawn) [Example 89, 2,2-Dimethyl-4-phenoxy-N-(4-phenylbutyl)piperidine-1-carboxamide]: in data set [1], the solubility came out at 0.01 µM (≈ 0.00381 µg/mL). Further, the IC50 on acid ceramidase (hACR) (setting [2]) was less than 200 nM.

With `CCCCCNC(=O)N1[C@H](C)CN(C2CC2)C[C@@H]1C` [Example 115, (2S,6R)-4-cyclopropyl-2,6-dimethyl-N-pentylpiperazine-1-carboxamide], in data set [1], the solubility stood at 69.1 µM (≈ 18.5 µg/mL). Besides, the concentration for half-maximal inhibition (IC50) at acid ceramidase (hACR) (setting [2]) was less than 200 nM.

In turn, `CCCCCNC(=O)N1C(C)COCC1(C)C` (stereo not drawn) [Example 132, 3,3,5-Trimethyl-N-pentylmorpholine-4-carboxamide] came in with a solubility in data set [1] of 88.3 µM (≈ 21.4 µg/mL). Further, the IC50 on acid ceramidase (hACR) (setting [2]) is less than 200 nM.

Consider `CCCCCNC(=O)N1C(c2ccc(F)cc2)COCC1(C)C` (stereo not drawn) [Example 137, 5-(4-Fluorophenyl)-3,3-dimethyl-N-pentylmorpholine-4-carboxamide], for which, in data set [1], the solubility worked out at 93 µM (≈ 30 µg/mL). Further, the IC50 at acid ceramidase (hACR) (setting [2]) was less than 200 nM.

For `COc1ccc(C2COCC(C)(C)N2C(=O)NCC2CC2)cc1` (stereo not drawn) [Example 144, N-(Cyclopropylmethyl)-5-(4-methoxyphenyl)-3,3-dimethylmorpholine-4-carboxamide], the solubility in data set [1] was 97.8 µM (≈ 31.1 µg/mL). In addition, the IC50 at acid ceramidase (hACR) (setting [2]) was less than 200 nM.

Turning to `COc1ccc(C2COCC(C)(C)N2C(=O)NCC2CCOCC2)cc1` (stereo not drawn) [Example 145, 5-(4-Methoxyphenyl)-3,3-dimethyl-N-(tetrahydropyran-4-ylmethyl)morpholine-4-carboxamide], the solubility in data set [1] was determined as 91.3 µM (≈ 33.1 µg/mL). Also, the IC50 on acid ceramidase (hACR) lay in the range of 200 to 1000 nM.

In turn, `COc1ccc(C2COCC(C)(C)N2C(=O)NCCC(F)(F)F)cc1` (stereo not drawn) [Example 153, 5-(4-Methoxyphenyl)-3,3-dimethyl-N-(3,3,3-trifluoropropyl)morpholine-4-carboxamide] gave a solubility in data set [1] of 79.2 µM (≈ 28.5 µg/mL). Besides, the IC50 on acid ceramidase (hACR) (setting [2]) lay within 200 to 1000 nM.

Compound `COc1ccc(C2COCC(C)(C)N2C(=O)NCCF)cc1` (stereo not drawn) [Example 154, N-(2-Fluoroethyl)-5-(4-methoxyphenyl)-3,3-dimethylmorpholine-4-carboxamide] displayed a solubility in data set [1] of 92.9 µM (≈ 28.8 µg/mL). Also, the half-inhibitory concentration (IC50) on acid ceramidase (hACR) (setting [2]) is 200 to 1000 nM.

In data set [1], `CCCCCNC(=O)N1C(c2ccc(OC)cc2)COCC1(C)C` (stereo not drawn) [Example 156, 5-(4-Methoxyphenyl)-3,3-dimethyl-N-pentylmorpholine-4-carboxamide] yielded a solubility of 91 µM (≈ 30.4 µg/mL). Moreover, at acid ceramidase (hACR) (setting [2]), the IC50 is less than 200 nM.

In data set [1], `COc1ccc(C2COCC(C)(C)N2C(=O)NCCOCC2CC2)cc1` (stereo not drawn) [Example 157, N-[2-(Cyclopropylmethoxy)ethyl]-5-(4-methoxyphenyl)-3,3-dimethylmorpholine-4-carboxamide] gave a solubility greater than 100 µM. In addition, the IC50 on acid ceramidase (hACR) (setting [2]) is less than 200 nM.

In turn, `CN1CC(c2ccccc2)N(C(=O)NCCCCc2ccccc2)C(C)(C)C1` (stereo not drawn) [Example 165, 2,2,4-Trimethyl-6-phenyl-N-(4-phenylbutyl)piperazine-1-carboxamide] registered a solubility in data set [1] of 71.6 µM (≈ 27.2 µg/mL). The 50% inhibitory concentration (IC50) on acid ceramidase (hACR) (setting [2]) is less than 200 nM.

A word on the solubility: it is the concentration that dissolves in the medium under given conditions. A high value points to much dissolved substance. Usually IC50 stands for the concentration that gives 50% inhibition.
